# What was measured:
# [1] = Hepatocyte MET ID, rat; format: in vitro ADME; conditions: 4-h incubation
# Excerpt: (§1) More concerning were the results generated via outsourced multispecies hepatocyte MET ID, which were drastically different than the liver S9MET ID. The extent of metabolism for VU6007496 with rat, dog, monkey and human hepatocytes was 64.7, 51.5, 63.9 and 99.5%, respectively (Figure 8). […] In human hepatocytes, PAM 11 was metabolized primarily to Metabolite A (24), the result of oxidative N-demethylation of the southern pyrazole. The other minor metabolites were oxidation on the tetrahydropyran moiety and included ring opening (Metabolite F, 25).[21]
# [2] = test system: Transporter, Serotonin (SERT); assay: Eurofins radioligand binding; design: species or system Human; conditions: specific binding
# [3] = test system: Neuropeptide Y Y1; assay: Eurofins radioligand binding; design: species or system Human; conditions: specific binding
# [4] = test system: Dopamine D2S; assay: Eurofins radioligand binding; design: species or system Human; conditions: specific binding
# [5] = Rat satellite PK study, 3 mg/kg p.o.; format: in vivo; conditions: 3 mg/kg p.o. (NOR MED)
# Excerpt: Historically, our PK/PD for M1 PAMs in NOR has a strong correlation with total brain as opposed to unbound levels, with MEDs typically 0.25 to 0.4 of the rat EC50.[21] This may be due to higher endogenous cholinergic tone in healthy animals, and the in vitro PAM EC50s being derived from an arbitrarily selected EC20 concentration of ACh as a subthreshold value.
# [6] = Hepatocyte MET ID, dog; format: in vitro ADME; conditions: 4-h incubation
# Excerpt: as §1
# [7] = test system: Transporter, GABA; assay: Eurofins radioligand binding; design: species or system Rat; conditions: specific binding
# [8] = test system: Dopamine D1; assay: Eurofins radioligand binding; design: species or system Human; conditions: specific binding
# [9] = test system: Tachykinin NK1; assay: Eurofins radioligand binding; design: species or system Human; conditions: specific binding
# [10] = test system: Dopamine D4.4; assay: Eurofins radioligand binding; design: species or system Human; conditions: specific binding
# [11] = test system: rCYP3A4; assay: Substrate depletion with recombinant human CYPs, rCYP3A4; format: in vitro ADME
# Excerpt: (§2) To advance 11 as a candidate and into IND-enabling studies, we next needed to better understand its CYP profile to minimize drug–drug interactions in the clinic. […] We were pleased to see the contribution of another CYP beyond 3A4 for the metabolism of 11.[21] In parallel, we investigated the ability of PAM 11 to induce the expression of CYP450s (measuring mRNA) in cryopreserved human hepatocytes from three separate donors.
# [12] = test system: Calcium Channel L-Type, Benzothiazepine; assay: Eurofins radioligand binding; design: species or system Rat; conditions: specific binding
# [13] = test system: Glutamate, Kainate; assay: Eurofins radioligand binding; design: species or system Rat; conditions: specific binding
# [14] = test system: T1, hKv1.3; assay: Ion channel current (Charles River Study 200609.WVN); format: cell-based, human; conditions: 10 μM; n 4
# T1 construct: Charles River
# Excerpt: (§3) Table S2. Effects of VU6007496 on Ion Channel Current (Charles River Study 200609.WVN)
# (§4) Ion Channel Conc Mean % Standard Standard n Individual Data
# (§5) (μM) Inhibition Deviation Error Points (% Inhibition)
# [15] = test system: T2, hCav3.2; assay: as above; format: cell-based, human; conditions: 10 μM; n 4
# T2 construct: Charles River
# Excerpt: as §3, §4, §5
# [16] = test system: T3, hCav1.2; assay: as above; format: cell-based, human; conditions: 10 μM; n 4
# T3 construct: Charles River
# Excerpt: as §3, §4, §5
# [17] = test system: T4, hNav1.5 (Phasic); assay: as above; format: cell-based, human; conditions: 10 μM, n 4
# T4 construct: Charles River Study 200609.WVN
# Excerpt: as §3, §4, §5
# [18] = test system: GABAA, Flunitrazepam, Central; assay: Eurofins radioligand binding; design: species or system Rat; conditions: specific binding
# [19] = test system: Opiate δ1 (OP1, DOP); assay: Eurofins radioligand binding; design: species or system Human; conditions: specific binding
# [20] = test system: CYP2B6; assay: CYP induction (mRNA) in cryopreserved human hepatocytes, CYP2B6; format: in vitro ADME; conditions: three donors
# Excerpt: as §2
# [21] = test system: Calcium Channel N-Type; assay: Eurofins radioligand binding; design: species or system Rat; conditions: specific binding
# [22] = test system: GABAB1A; assay: Eurofins radioligand binding; design: species or system Human; conditions: specific binding
# [23] = test system: Potassium Channel hERG; assay: Eurofins radioligand binding; conditions: human, specific binding
# [24] = test system: Adrenergic β2; assay: Eurofins radioligand binding; design: species or system Human; conditions: specific binding
# [25] = test system: Sigma σ1; assay: Eurofins radioligand binding; design: species or system Human; conditions: specific binding
# [26] = test system: T5, hERG; assay: Ion channel current (Charles River Study 200609.WVN); format: cell-based; conditions: human, n 3
# T5 construct: Charles River
# Excerpt: as §3, §4, §5
# [27] = test system: Adrenergic β1; assay: Eurofins radioligand binding; design: species or system Human; conditions: specific binding
# [28] = test system: Adrenergic α1A; assay: Eurofins radioligand binding; design: species or system Human; conditions: specific binding
# [29] = test system: Serotonin (5-HT2B); assay: Eurofins radioligand binding; design: species or system Human; conditions: specific binding
# [30] = target: Glutamate, NMDA, Glycine (Rattus norvegicus, UniProt P35439); assay: Eurofins radioligand binding; conditions: specific binding
# Chain of Glutamate, NMDA, Glycine (P35439 394-800 limits assumed): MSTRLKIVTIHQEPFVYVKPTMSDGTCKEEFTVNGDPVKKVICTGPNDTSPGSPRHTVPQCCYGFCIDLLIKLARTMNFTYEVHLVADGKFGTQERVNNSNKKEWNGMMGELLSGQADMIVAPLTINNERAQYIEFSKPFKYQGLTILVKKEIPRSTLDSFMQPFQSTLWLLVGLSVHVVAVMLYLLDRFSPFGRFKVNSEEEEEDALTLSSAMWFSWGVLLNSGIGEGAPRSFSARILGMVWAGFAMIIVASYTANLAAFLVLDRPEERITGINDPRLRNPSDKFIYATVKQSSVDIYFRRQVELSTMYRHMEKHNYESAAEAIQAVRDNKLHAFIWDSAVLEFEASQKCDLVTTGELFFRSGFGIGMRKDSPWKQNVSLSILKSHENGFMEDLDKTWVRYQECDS
# [31] = test system: Histamine H2; assay: Eurofins radioligand binding; design: species or system Human; conditions: specific binding
smiles,measurement,setting,value
Cn1ccc(-c2ccc(Cc3cc(C(=O)NC4CCOCC4)nc4ccn(C)c34)cc2)n1 [compound 11],"extent of metabolism, rat hepatocytes",[1],64.7%
same,% Inhibition at 10 µM,[2],-7%
same,% Inhibition at 10 µM,[3],-10%
same,% Inhibition at 10 µM,[4],5%
same,total brain concentration,[5],990 nM
same,unbound brain concentration,[5],39.8 nM
same,"extent of metabolism, dog hepatocytes",[6],51.5%
same,% Inhibition at 10 µM,[7],-17%
same,% Inhibition at 10 µM,[8],5%
same,% Inhibition at 10 µM,[9],8%
same,% Inhibition at 10 µM,[10],1%
same,"share of hepatic CYP-mediated clearance, rCYP3A4",[11],97.6%
same,% Inhibition at 10 µM,[12],12%
same,% Inhibition at 10 µM,[13],-19%
same,Mean % Inhibition,[14],16.5%
same,Mean % Inhibition,[15],4.2%
same,Mean % Inhibition,[16],12.8%
same,Mean % Inhibition,[17],11.4%
same,% Inhibition at 10 µM,[18],-3%
same,% Inhibition at 10 µM,[19],5%
same,CYP2B6 induction (mRNA),[20],~8 fold
same,% Inhibition at 10 µM,[21],8%
same,% Inhibition at 10 µM,[22],4%
same,inhibition at 10 µM,[23],11%
same,% Inhibition at 10 µM,[24],7%
same,% Inhibition at 10 µM,[25],-8%
same,inhibition at 10 µM,[26],2.6%
same,% Inhibition at 10 µM,[27],-14%
same,% Inhibition at 10 µM,[28],-1%
same,% Inhibition at 10 µM,[29],7%
same,inhibition at 10 µM,[30],0%
same,% Inhibition at 10 µM,[31],28%
